Assay results taken from the supplement of paper PMC10307832.

Experiments:
Experiment in all cases: relative viability (nuclei count vs DMSO), 5 days (fraction); higher = more cells survive
Elesclomol + Luminespib = compound: CN(NC(=O)CC(=O)NN(C)C(=S)c1ccccc1)C(=S)c1ccccc1 [Elesclomol] + CCNC(=O)c1noc(-c2cc(C(C)C)c(O)cc2O)c1-c1ccc(CN2CCOCC2)cc1 [Luminespib] (partner 0.01 µM)
Summary of the method: (§1)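 Five library-drug doses in √10 steps were combined with a fixed anchor-drug dose, or a single drug was given alone, by pin tool to lung cancer cell lines in 1536-well plates the day after seeding. Nuclei were stained and counted after 5 days. Relative viability is the nuclei count in treated wells over that in vehicle wells, taken as the median of duplicate plates.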

Elesclomol + Foretinib = compound: CN(NC(=O)CC(=O)NN(C)C(=S)c1ccccc1)C(=S)c1ccccc1 [Elesclomol] + COc1cc2c(Oc3ccc(NC(=O)C4(C(=O)Nc5ccc(F)cc5)CC4)cc3F)ccnc2cc1OCCCN1CCOCC1 [Foretinib] (partner 0.25 µM)
Summary of the method: as §1

Elesclomol + OSI-027 = compound: CN(NC(=O)CC(=O)NN(C)C(=S)c1ccccc1)C(=S)c1ccccc1 [Elesclomol] + COc1cccc2cc(-c3nc([C@H]4CC[C@H](C(=O)O)CC4)n4ncnc(N)c34)[nH]c12 [OSI-027] (partner 0.5 µM)
Summary of the method: as §1

Elesclomol + Alpelisib = compound: CN(NC(=O)CC(=O)NN(C)C(=S)c1ccccc1)C(=S)c1ccccc1 [Elesclomol] + Cc1nc(NC(=O)N2CCC[C@H]2C(N)=O)sc1-c1ccnc(C(C)(C)C(F)(F)F)c1 [Alpelisib] (partner 2 µM)
Summary of the method: as §1

Elesclomol + Decitabine = compound: CN(NC(=O)CC(=O)NN(C)C(=S)c1ccccc1)C(=S)c1ccccc1 [Elesclomol] + Nc1ncn([C@H]2C[C@H](O)[C@@H](CO)O2)c(=O)n1 [Decitabine] (partner 2 µM)
Summary of the method: as §1

Cell Line	relative viability (Elesclomol + Luminespib; first compound 0.003162 µM)	relative viability (Elesclomol + Luminespib; first compound 0.01 µM)	relative viability (Elesclomol + Luminespib; first compound 0.03162 µM)	relative viability (Elesclomol + Luminespib; first compound 0.1 µM)	relative viability (Elesclomol + Foretinib; first compound 0.003162 µM)	relative viability (Elesclomol + Foretinib; first compound 0.01 µM)	relative viability (Elesclomol + Foretinib; first compound 0.03162 µM)	relative viability (Elesclomol + Foretinib; first compound 0.1 µM)	relative viability (Elesclomol + OSI-027; first compound 0.003162 µM)	relative viability (Elesclomol + OSI-027; first compound 0.01 µM)	relative viability (Elesclomol + OSI-027; first compound 0.03162 µM)	relative viability (Elesclomol + OSI-027; first compound 0.1 µM)	relative viability (Elesclomol + Alpelisib; first compound 0.003162 µM)	relative viability (Elesclomol + Alpelisib; first compound 0.01 µM)	relative viability (Elesclomol + Alpelisib; first compound 0.03162 µM)	relative viability (Elesclomol + Alpelisib; first compound 0.1 µM)	relative viability (Elesclomol + Decitabine; first compound 0.003162 µM)	relative viability (Elesclomol + Decitabine; first compound 0.01 µM)	relative viability (Elesclomol + Decitabine; first compound 0.03162 µM)	relative viability (Elesclomol + Decitabine; first compound 0.1 µM)
NCI-H647	0.113	0.0912	0.0748	0.0628	1.05	0.973	0.359	0.0921	0.603	0.368	0.161	0.203	1.12	0.998	0.245	0.017	0.355	0.293	0.259	0.0841
SW 1573	0.154	0.0972	0.0704	0.0142	0.769	0.65	0.165	0.0891	0.167	0.107	0.0847	0.0105	0.728	0.211	0.143	0.0815	0.173	0.111	0.0529	0.0067
HCC-15	0.27	0.194	0.11	0.0457	0.946	0.857	0.355	0.171	0.727	0.412	0.276	0.0961	0.931	0.645	0.559	0.236	0.623	0.478	0.343	0.206
NCI-H2126	0.883	0.801	0.338	0.325	1.19	0.943	0.435	0.201	0.826	0.637	0.455	0.246	0.719	0.713	0.717	0.739	0.538	0.616	0.558	0.593
NCI-H2085	0.421	0.393	0.321	0.248	1.09	0.658	0.462	0.271	0.919	0.727	0.476	0.268	0.895	0.621	0.555	0.286	0.561	0.449	0.355	0.297
BEN	0.333	0.232	0.158	0.237	0.493	0.467	0.296	0.265	0.301	0.256	0.27	0.252	0.873	0.351	0.338	0.242	0.677	0.483	0.419	0.333
NCI-H650	0.791	0.401	0.196	0.18	1.07	0.509	0.329	0.243	0.555	0.382	0.229	0.254	1.09	0.342	0.271	0.237	0.343	0.281	0.211	0.16
LCLC-103H	0.903	0.734	1.01	0.435	0.771	0.768	0.862	0.487	0.461	0.409	0.463	0.237	1.17	0.883	1.02	0.955	0.765	0.686	0.734	0.742
PC-14	0.11	0.0979	0.0814	0.0429	1.02	0.827	0.484	0.0715	0.19	0.0399	0.0104	0.0138	0.913	0.558	0.0506	0.0344	0.126	0.0523	0.0385	0.0283
COR-L23	0.598	0.316	0.206	0.0873	0.977	0.667	0.418	0.198	0.757	0.408	0.254	0.0774	0.694	0.366	0.268	0.0856	0.439	0.347	0.282	0.163
NCI-H1915	0.771		0.768	0.331	1.05		1.08	0.793	0.616		0.587	0.357	1.05		1.05	0.879	0.254	0.265	0.277	0.205
